Experimental data as given in patent publication US20160346283A1, “Various Compounds as Autophagy Stimulants” (Velgene 3 Limited, priority 2013, published 2016).

Experiments:
[1] = system: GFP-RFP-LC3 HeLa cell line; test: GFP-RFP-LC3 HeLa autophagy reporter cell assay (fluorescence microscopy); format: cell-based, human; conditions: for number of red foci (autolysosomes): 10.0 μM, 6 hours, compared to negative control (DMSO)
Procedure: The GFP-RFP-LC3 HeLa cell line (Settembre et al, Science, 2011) was cultured in DMEM (Dulbecco's Modified Eagle's Medium, Sigma, D7777) containing 4500 mg/l glucose, 10% heat inactivated FCS (Merck), 40 μg/ml gentamycin (Hungaropharma) and 600 μg/ml G418 (Sigma, G8168). Drug candidates […]-0696, […]-7132 and […]-1567 were obtained from the ENAMINE molecule bank. 3×10^4 cells were plated onto 13 mm diameter poly-D-lysine coated coverslips in 24-well plates (Greiner) with 24 hours before the treatment. […] As controls, 0.1 and 1% DMSO, 200 nM rapamycin (autophagy inductor) and 100 nM bafilomycin A1 (an autophagy inhibitor) were used. For fluorescence microscopy, cells were fixed in 4% paraformaldehyde (Taab) and mounted in mowiol 4.88 (Polysciences) supplemented with bis-benzimide (Sigma) for nuclei staining. 5 epifluorescent pictures were taken in each condition by a BX51 microscope (Olympus) fitted with a FluoViewII camera and the AnalysisPro software (Olympus), using a 60×/1.4 oil Plan objective and the appropriate filter sets (DAPI: BP330-385/DM400/BA420; GFP: BP460-500/DM505/BP510-560; RFP: BP480-550/DM570/BA590). […] RFP: red fluorescence protein-autolysosome (mature autophagic compartment) GFP: green fluorescence protein Atg8: Autophagy-related protein 8-the most frequently used marker for autophagy Yellow: RFP and GFP (merged)-autophagosome (the primary autophagic structure)

[2] = system: Drosophila melanogaster transgenic for an mCherry:Atg8 reporter (fat body); test: mCherry:Atg8 reporter in fat body of Drosophila L3 larvae; format: in vivo; conditions: L3 larva, 1.0 uM, 2 hours
Procedure: Flies with the genotype of hsFlp:pAct<CD2<Gal4, UAS-nlsGFP, r4:mCherry:Atg8a were used. Microscopic images were taken from the fat body of wandering larvae at the L3 stage. Note that in well-fed larvae at the same stage, no autophagic activity is visible. 2 hours before the test, 90-94 hours larvae were transferred onto yeast suspension (0.5 g yeast extract 2.5 ml water, homogenization and boiling). […] Larvae were cultured in this medium for 2 hours. Preparation of fat bodies was performed in PBS solution. For covering, 8:2 ratio of glycerine:PBS was used (supplemented with 10 mM Hoechst solution).
Imaging was taken with a Zeiss AxioImager Z1 fluorescence microscope, supplemented with Apotome semiconfocal setup, 400× magnification, the same exposition time.
Examining T544-1567 (inhibitor), hsFlp; pAct<CD2<Gal4, UAS-nlsGFP, r4:mCherry:Atg8a flies were crossed with animals of yw; (EP)EDTP^EY22967 genotype (the autophagy antagonist EDTP/Jumpy is clonally overexpressed in fat body).
Cells with overactivated EDTP/Jumpy are in green due to the presence of the GFP transgene. Blue colour (DAP staining) indicates the nuclei (DNA). Red dots (mCherry:Atg8) indicate autophagy structures (autophagosomes+autolysosomes). […]

[3] = system: mice (pancreas, liver); test: Autophagic activity in mouse organs by electron microscopy; format: in vivo; conditions: 50 uMol intraperitoneal, 2.5 hours
Procedure: 50 uMol of effective molecules were dissolved in 10% DMSO and were administered intraperitoneously. After 2.5 hours the animals were sacrificed and their organs removed. The organs were transferred to tissue cultivating solution.
The organs were prepared for electronmicroscopic studies by standard preparation techniques. The ultrathin slices were prepared using Reichert-Jung Ultracut-E type ultramicrotome. The slides were investigated by JEM Jeol 1011 electron microscope.

SMILES | accumulation of autophagosomes (yellow foci), fusion with lysosomes blocked ([1]; 100 nM bafilomycin A1, 6 hours) | number of red foci (autolysosomes) [1] | autophagy activity (autolysosome accumulation) ([1]; larger dose, 50 uM) | red dots (mCherry:Atg8 autophagy structures) in fat body [2] | autophagic activity (autophagosomes and autolysosomes) in liver [3] | autophagic activity (autophagosomes and autolysosomes) in pancreas [3]
CO/C1=C\C(C)=C\[C@@H](C)[C@@H](O)[C@@H](C)C/C(C)=C/C=C/[C@H](OC)[C@@H]([C@@H](C)[C@@H](O)[C@H](C)[C@@]2(O)C[C@@H](O)[C@H](C)[C@@H](C(C)C)O2)OC1=O [Bafilomycin A1, reference compound] | yellow foci accumulate in large quantities |  |  |  |  | 
O=C1C([N-]S(=O)(=O)c2ccc([N+](=O)[O-])cc2)=C([n+]2c[nH]c3ccccc32)C(=O)c2ccccc21 [T0501-7132] |  | induces the accumulation the autolysosomes | markedly elevated activity |  |  | 
CC(Sc1nc2ccccc2c(=O)n1C1CCCC1)C(=O)N1CCc2ccccc21 (stereo not shown) [T558-0696] |  | increases the number of red foci (autolysosomes) |  | increased number of red dots | pronounced autophagic activity | pronounced autophagic activity
